According to publication PMC12621184, “Synthesis and Pharmacological Characterization of Nociceptin/Orphanin FQ Dimeric Ligands” (Journal of Medicinal Chemistry, 2025):
Bridge positions count the residues as written; N and C are the ends. Peptide text beside a SMILES is read from it. I, II: the chains in the order shown.

Columns and labels:
human NOP [1] = target: T1, human NOP (Homo sapiens, UniProt P41146); test: NOP receptor–G protein interaction BRET assay; type: biochemical; design: expressed in transfected cells; host or cells: membranes of HEK293 cells stably coexpressing NOP-RLuc and Gβ1-RGFP; details: N = 5 experiments in duplicate; for EC50: membranes from HEK293 cells coexpressing NOP-RLuc and Gβ1-RGFP, room temperature, mean (CL95%), read-out: NOP–G protein interaction pEC50 (CL95%) (converted)
T1 sequence (P41146 whole entry): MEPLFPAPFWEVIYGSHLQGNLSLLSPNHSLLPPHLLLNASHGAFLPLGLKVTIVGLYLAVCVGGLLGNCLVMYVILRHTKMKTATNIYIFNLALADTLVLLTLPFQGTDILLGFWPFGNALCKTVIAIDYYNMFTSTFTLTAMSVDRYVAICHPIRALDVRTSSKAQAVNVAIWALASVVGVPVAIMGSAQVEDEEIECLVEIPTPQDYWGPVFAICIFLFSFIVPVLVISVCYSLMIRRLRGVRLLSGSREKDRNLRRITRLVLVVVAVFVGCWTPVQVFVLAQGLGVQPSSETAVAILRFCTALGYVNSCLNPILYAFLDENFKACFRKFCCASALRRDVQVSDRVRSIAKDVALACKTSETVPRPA
Experimental: A BRET interaction assay was used, as previously detailed in ref , to study the propensity of ligands to evoke interaction between the NOP receptor and to G protein. Membranes taken from HEK293 cells stably coexpressing the fusoproteins NOP-RLuc and Gβ1-RGFP were used. Such cells were grown in DMEM medium supplemented with 10% FBS, 2 mM L-glutamine, […] G418, […] hygromycin B, 100 IU/mL penicillin, and 100 IU/mL streptomycin in a humidified atmosphere with 5% CO2 at 37 °C. Cell membranes were thawed and resuspended in PBS supplemented with 0.01% BSA before the assay, and an amount of 3 μg of total protein was dispensed in each of the 96 wells together with 2 μM Prolume Purple Coelenterazine. All experiments were carried out at room temperature. Ligands were added, and averaged BRET ratios from 10 min measurements were computed. BRET ratios were computed as counts per second (CPS) obtained on a Victor Nivo (PerkinElmer) with 405 (10) nm and 510 (30) nm bandpass filters. Vehicles’ BRET ratios were derived from light passed through 510 divided by that passed through 405 filters. Vehicles BRET values were subtracted from all computations, and data sets were normalized as a fraction of N/OFQ maximal effects.
(§1) Concentration-response curves to agonists were analyzed by a four-parameter logistic nonlinear regression model: Effect = baseline + (E max – baseline)/(1 + 10^((logEC50–log[ligand])slope)). […] Experimental data were expressed as mean ± sem of at least 5 experiments. Potency values were expressed as the mean and CL95%. In vitro E max values were analyzed by one-way ANOVA, while in vivo latency data were evaluated by one-way ANOVA followed by Dunnett’s post hoc test. The proportion of mice losing the righting reflex was compared by Fisher’s exact test performed on raw data. GraphPad Prism 10.0 software was used for all of the analyses. The terminology employed is consistent with the International Union of Basic and Clinical Pharmacology (IUPHAR) recommendations. ,

human NOP [2] = target: T1, human NOP; test: Calcium mobilization assay, CHO cells with NOP receptor and chimeric G protein; type: cell-based; design: expressed in transfected cells; details: for EC50: CHO cells coexpressing human NOP and Gαqi5, Fluo-4, 37 °C, mean (CL95%), N = 5 experiments in duplicate, read-out: Ca^2+ mobilization pEC50 (CL95%) (converted); for Ca^2+ mobilization E max ± sem: CHO cells coexpressing human NOP and Gαqi5, maximum change in percentage over baseline fluorescence, mean ± sem, N = 5 in duplicate
Experimental: Chinese hamster ovary (CHO) cells stably coexpressing the human NOP, μ, or κ opioid receptors and the Gαqi5 protein or the human δ and the GαqG66Di5 protein were used in this assay. , Cells were cultured in DMEM/F-12 (1:1) medium supplemented with 10% FBS, 2 mM L-glutamine, […], 100 IU/mL penicillin, and 100 IU/mL streptomycin. Cells were maintained at 37 °C in a humidified atmosphere with 5% CO2 and were seeded at 50 000 cells/well into 96-well black, clear-bottom plates 24 h before test. Loading for 45 min with a solution consisting of HBSS supplemented with 2.5 mM probenecid, 3 μM Fluo-4 AM, and 0.01% pluronic acid ensures the calcium-sensitive dye (Fluo-4) reaches the needed concentration inside the cell, while the exchange of the solution with 100 μL/well of buffer consisting of HBSS with 20 mM HEPES, 2.5 mM probenecid, and 500 μM Brilliant Black allows for fluorescence background to decrease. Serial dilutions of ligands were prepared in HBSS buffer with 20 mM HEPES and 0.02% bovine serum albumin (BSA) to minimize the ligands’ stickiness to plasticware. The automated microplate reader FlexStation II (Molecular Devices, CA, US) was employed at 37 °C to detect changes in fluorescence intensity. The effects of all compounds were expressed as the maximum change in percentage over the baseline fluorescence measured in samples treated with vehicles.
as §1

SMILES | EC50 (human NOP [1]) [nM] | EC50 (human NOP [2]) [nM] | Ca^2+ mobilization E max ± sem (human NOP [2]) [% over the baseline] | NOP–G protein interaction E max ± sem (human NOP [1]; effects normalized to N/OFQ-NH2 (E max = 1), mean ± sem)
CC(C)C[C@H](NC(=O)[C@H](CCCCN)NC(=O)[C@H](CCCNC(=N)N)NC(=O)[C@H](C)NC(=O)[C@H](CSSC[C@H](NC(=O)[C@H](CCCCN)NC(=O)[C@H](CCCNC(=N)N)NC(=O)[C@H](C)NC(=O)CNC(=O)[C@@H](NC(=O)[C@H](Cc1ccccc1)NC(=O)CNC(=O)CNC(=O)[C@@H](N)Cc1ccccc1)[C@@H](C)O)C(=O)N[C@@H](C)C(=O)N[C@@H](CCCNC(=N)N)C(=O)N[C@@H](CCCCN)C(=O)N[C@@H](CC(C)C)C(=O)N[C@@H](C)C(=O)N[C@@H](CC(N)=O)C(=O)N[C@@H](CCC(N)=O)C(N)=O)NC(=O)[C@H](CCCCN)NC(=O)[C@H](CCCNC(=N)N)NC(=O)[C@H](C)NC(=O)CNC(=O)[C@@H](NC(=O)[C@H](Cc1ccccc1)NC(=O)CNC(=O)CNC(=O)[C@@H](N)Cc1ccccc1)[C@@H](C)O)C(=O)N[C@@H](C)C(=O)N[C@@H](CC(N)=O)C(=O)N[C@@H](CCC(N)=O)C(N)=O [1d, [[Cys^10]N/OFQ-NH2]2] (I: H-FGGFTGARKCARKLANQ-NH2 / II: H-FGGFTGARKCARKLANQ-NH2; disulfide I:10-II:10) | 0.141 | 1.91 | 305 ± 42 | –
CC(C)C[C@H](NC(=O)[C@H](CCCCN)NC(=O)[C@H](CSSC[C@H](NC(=O)[C@H](C)NC(=O)[C@H](CO)NC(=O)[C@H](CCCCN)NC(=O)[C@H](CCCNC(=N)N)NC(=O)[C@H](C)NC(=O)CNC(=O)[C@@H](NC(=O)[C@H](Cc1ccccc1)NC(=O)CNC(=O)CNC(=O)[C@@H](N)Cc1ccccc1)[C@@H](C)O)C(=O)N[C@@H](CCCCN)C(=O)N[C@@H](CC(C)C)C(=O)N[C@@H](C)C(=O)N[C@@H](CC(N)=O)C(=O)N[C@@H](CCC(N)=O)C(N)=O)NC(=O)[C@H](C)NC(=O)[C@H](CO)NC(=O)[C@H](CCCCN)NC(=O)[C@H](CCCNC(=N)N)NC(=O)[C@H](C)NC(=O)CNC(=O)[C@@H](NC(=O)[C@H](Cc1ccccc1)NC(=O)CNC(=O)CNC(=O)[C@@H](N)Cc1ccccc1)[C@@H](C)O)C(=O)N[C@@H](C)C(=O)N[C@@H](CC(N)=O)C(=O)N[C@@H](CCC(N)=O)C(N)=O [1f, [[Cys^12]N/OFQ-NH2]2] (I: H-FGGFTGARKSACKLANQ-NH2 / II: H-FGGFTGARKSACKLANQ-NH2; disulfide I:12-II:12) | 1.26 | 3.02 | 346 ± 19 | 1.07 ± 0.12
CC(C)C[C@H](NC(=O)[C@H](CSSC[C@H](NC(=O)[C@H](CCCNC(=N)N)NC(=O)[C@H](C)NC(=O)[C@H](CO)NC(=O)[C@H](CCCCN)NC(=O)[C@H](CCCNC(=N)N)NC(=O)[C@H](C)NC(=O)CNC(=O)[C@@H](NC(=O)[C@H](Cc1ccccc1)NC(=O)CNC(=O)CNC(=O)[C@@H](N)Cc1ccccc1)[C@@H](C)O)C(=O)N[C@@H](CC(C)C)C(=O)N[C@@H](C)C(=O)N[C@@H](CC(N)=O)C(=O)N[C@@H](CCC(N)=O)C(N)=O)NC(=O)[C@H](CCCNC(=N)N)NC(=O)[C@H](C)NC(=O)[C@H](CO)NC(=O)[C@H](CCCCN)NC(=O)[C@H](CCCNC(=N)N)NC(=O)[C@H](C)NC(=O)CNC(=O)[C@@H](NC(=O)[C@H](Cc1ccccc1)NC(=O)CNC(=O)CNC(=O)[C@@H](N)Cc1ccccc1)[C@@H](C)O)C(=O)N[C@@H](C)C(=O)N[C@@H](CC(N)=O)C(=O)N[C@@H](CCC(N)=O)C(N)=O [1g, [[Cys^13]N/OFQ-NH2]2] (I: H-FGGFTGARKSARCLANQ-NH2 / II: H-FGGFTGARKSARCLANQ-NH2; disulfide I:13-II:13) | 0.302 | 1.62 | 247 ± 39 | –
